# Patent publication US20240425524A1, “SPIROTRICYCLE RIPK1 INHIBITORS AND METHODS OF USES THEREOF” (Merck Sharp & Dohme LLC, priority 2021, published 2024)
# Target: RIPK1 (Homo sapiens (Human), UniProt Q13546)
# Assay: RIPK1-ADP-Glo Enzymatic Assay
# Format: biochemical
# Conditions: recombinant GST-RIPK1 kinase domain (residues 1-327), 25 nM, ten-point titration, 30 minutes pre-incubation
# Procedure: The enzymatic activity of RIPK1 was measured using an assay derived from ADP-Glo kit (™Promega), which provides a luminescent-based ADP detection system. Specifically, the ADP generated by RIPK1 kinase was proportionally detected as luminescent signals in a homogenous fashion. In this context, the assessment of the inhibitory effect of small molecules (EC50) was measured by the effectiveness of the compounds to inhibit the ATP to ADP conversion by RIPK1.
# In this assay, the potency (EC50) of each compound was determined from a ten-point (1:3 serial dilution: top compound concentration of 100000 nM) titration curve using the following outlined procedure. To each well of a white ProxiPlus 384 well-plate, 30 nL of compound (1% DMSO in final assay volume of 3 μL) was dispensed, followed by the addition of 2 μL of 1x assay buffer (25 mM Hepes 7.3, 20 mM MgCl2, 50 mM NaCl, 1 mM DTT, 0.005% Tween20, and 0.02% BSA) containing 37.5 nM of GST-RIPK1 (recombinant GST-RIPK1 kinase domain (residues 1-327) enzyme produced from baculovirus-transfected Sf21 cells: MW=62 kDa). Plates were placed in an ambient temperature humidified chamber for a 30 minutes pre-incubation with compound. Subsequently, each reaction was initiated by the addition of 1 μL 1× assay buffer containing […] dephosphorylated-MBP substrate. The final reaction in each well of 3 μL consists of 25 nM of GST-RIPK1, 300 µM ATP, and 3 μM dephosphorylated-MBP. Kinase reactions were allowed to proceed for 150 minutes prior to adding ADP-Glo reagents per Promega's outlined kit protocol. Dose-response curves were generated by plotting percent effect (% product conversion: Y-axis) vs. Logio compound concentrations (X-axis). EC50 values were calculated using a non-linear regression, four-parameters sigmoidal dose-response model and are provided for example compounds of the invention (labeled “RIPK1 EC50 (nM)” throughout the above examples).
# Chain of RIPK1 (Q13546 1-327): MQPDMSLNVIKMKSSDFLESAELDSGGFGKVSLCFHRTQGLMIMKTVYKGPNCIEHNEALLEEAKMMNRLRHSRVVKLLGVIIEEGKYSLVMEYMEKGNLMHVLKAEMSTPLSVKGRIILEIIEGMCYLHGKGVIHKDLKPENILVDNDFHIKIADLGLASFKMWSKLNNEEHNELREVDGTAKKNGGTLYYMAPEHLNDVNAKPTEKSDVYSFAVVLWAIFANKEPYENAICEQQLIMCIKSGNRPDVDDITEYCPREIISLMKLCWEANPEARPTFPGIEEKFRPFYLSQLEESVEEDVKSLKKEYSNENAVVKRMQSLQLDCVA
row,SMILES,EC50 [nM]
1,"O=C1N2[C@H](c3cc(F)cc(F)c3)CCN2CC12CCN(c1cc(Br)cc(F)n1)CC2 [Example 1.60, (S)-1-(4-bromo-6-fluoropyridin-2-yl)-7′-(3,5-difluorophenyl)dihydro-1′H,3′H,5′H-spiro[piperidine-4,2′-pyrazolo[1,2-a]pyrazol]-1′-one]",17
2,"CN(C)c1cc(Cl)nc(N2CCC3(CC2)CN2CC[C@@H](c4cc(F)cc(F)c4)N2C3=O)n1 [Example 1.61, (S)-1-(4-chloro-6-(dimethylamino)pyrimidin-2-yl)-7′-(3,5-difluorophenyl)dihydro-1′H,3′H,5′H-spiro[piperidine-4,2′-pyrazolo[1,2-a]pyrazol]-1′-one]",904
3,"CCc1cnc(N2CCC3(CC2)CN2CC[C@@H](c4cc(F)cc(F)c4)N2C3=O)nc1 [Example 1.28, (S)-7′-(3,5-difluorophenyl)-1-(5-ethylpyrimidin-2-yl)dihydro-1′H,3′H,5′H-spiro[piperidine-4,2′-pyrazolo[1,2-a]pyrazol]-1′-one]",409
4,"N#Cc1c(F)c(F)nc(N2CCC3(CC2)CN2CC[C@@H](c4cc(F)cc(F)c4)N2C3=O)c1F [Example 1.51, (S)-2-(7′-(3,5-difluorophenyl)-1′-oxodihydro-1′H,3′H,5′H-spiro [piperidine-4,2′-pyrazolo[1,2-a]pyrazol]-1-yl)-3,5,6-trifluoroisonicotinonitrile]",189
5,"CC(F)(F)c1ccnc(N2CCC3(CC2)CN2CC[C@@H](c4cc(F)cc(F)c4)N2C3=O)n1 [Example 1.77, (S)-1-(4-(1,1-difluoroethyl)pyrimidin-2-yl)-7′-(3,5-difluorophenyl)dihydro-1′H,3′H,5′H-spiro [piperidine-4,2′-pyrazolo[1,2-a]pyrazol]-1′-one]",200
6,"O=C1N2[C@H](c3cc(F)cc(F)c3)CCN2CC12CCN(c1cc(-n3cccn3)ncn1)CC2 [Example 1.17, (S)-1-(6-(1H-pyrazol-1-yl)pyrimidin-4-yl)-7′-(3,5-difluorophenyl)dihydro-1′H,3′H,5′H-spiro[piperidine-4,2′-pyrazolo[1,2-a]pyrazol]-1′-one]",20
7,"Cc1csc2ncnc(N3CCC4(CC3)CN3CC[C@@H](c5cc(F)cc(F)c5)N3C4=O)c12 [Example 1.73, (S)-7′-(3,5-difluorophenyl)-1-(5-methylthieno[2,3-d]pyrimidin-4-yl)dihydro-1′H,3′H,5′H-spiro[piperidine-4,2′-pyrazolo[1,2-a]pyrazol]-l′-one]",4
8,"CC(C)c1nccc(N2CCC3(CC2)CN2CC[C@@H](c4cc(F)cc(F)c4)N2C3=O)n1 [Example 1.49, (S)-7′-(3,5-difluorophenyl)-1-(2-isopropylpyrimidin-4-yl)dihydro-1′H,3′H,5′H-spiro[piperidine-4,2′-pyrazolo[1,2-a]pyrazol]-1′-one]",295
9,"O=C1N2[C@H](c3cc(F)cc(F)c3)CCN2CC12CCN(c1nc(Cl)nc3[nH]ncc13)CC2 [Example 1.53, (S)-1-(6-chloro-1H-pyrazolo[3,4-d]pyrimidin-4-yl)-7′-(3,5-difluorophenyl)dihydro-1′H,3′H,5′H-spiro[piperidine-4,2′-pyrazolo[1,2-a]pyrazol]-1′-one]",857
10,"N#Cc1ccnc(N2CCC3(CC2)CN2CC[C@@H](c4cc(F)cc(F)c4)N2C3=O)n1 [Example 1.75, (S)-2-(7′-(3,5-difluorophenyl)-1′-oxodihydro-1′H,3′H,5′H-spiro[piperidine-4,2′-pyrazolo[1,2-a]pyrazol]-1-yl)pyrimidine-4-carbonitrile]",49
11,"O=C1N2[C@H](c3cc(F)cc(F)c3)CCN2CC12CCN(c1ccc(Cl)nn1)CC2 [Example 1.34, (S)-1-(6-chloropyridazin-3-yl)-7′-(3,5-difluorophenyl)dihydro-1′H,3′H,5′H-spiro[piperidine-4,2′-pyrazolo[1,2-a]pyrazol]-1′-one]",457
12,"Cc1ncc(Cl)nc1N1CCC2(CC1)CN1CC[C@@H](c3cc(F)cc(F)c3)N1C2=O [Example 1.43, (S)-1-(6-chloro-3-methylpyrazin-2-yl)-7′-(3,5-difluorophenyl)dihydro-1′H,3′H,5′H-spiro[piperidine-4,2′-pyrazolo[1,2-a]pyrazol]-1′-one]",876
13,"O=C1N2[C@H](c3cc(F)cc(F)c3)CCN2CC12CCN(c1cccc(Cl)n1)CC2 [Example 1.5, (7′S)-1-(6-chloropyridin-2-yl)-7′-(3,5-difluorophenyl)dihydro-1′H,3′H,5′H-spiro[piperidine-4,2′-pyrazolo[1,2-a]pyrazol]-1′-one]",24

# Further lines, results first:
row,EC50 [nM],SMILES
1,17,"Cn1cc(-c2cc(N3CCC4(CC3)CN3CC[C@@H](c5cc(F)cc(F)c5)N3C4=O)ncn2)cn1 [Example 1.93, (S)-7′-(3,5-difluorophenyl)-1-(6-(1-methyl-1H-pyrazol-4-yl)pyrimidin-4-yl)dihydro-1′H,3′H,5′H-spiro[piperidine-4,2′-pyrazolo[1,2-a]pyrazol]-1′-one]"
2,446,"O=C(c1cncc(F)c1)N1CCC2(CC1)CN1CC[C@@H](c3cc(F)cc(F)c3)N1C2=O [Example 4.17, (S)-7′-(3,5-difluorophenyl)-1-(5-fluoronicotinoyl) dihydro-1′H,3′H,5′H-spiro[piperidine-4,2′-pyrazolo[1,2-a]pyrazol]-l′-one]"
3,139,"COC(=O)N1CCC2(CC1)CN1CC[C@@H](c3cc(F)cc(F)c3)N1C2=O [Example 5.2, methyl (S)-7′-(3,5-difluorophenyl)-1′-oxodihydro-1′H,3′H,5′H-spiro [piperidine-4,2′-pyrazolo[1,2-a]pyrazole]-1-carboxylate]"
4,22,"COc1nc(N2CCC3(CC2)CN2CC[C@@H](c4cc(F)cc(F)c4)N2C3=O)ncc1F [Example 1.85, (S)-7′-(3,5-difluorophenyl)-1-(5-fluoro-4-methoxypyrimidin-2-yl)dihydro-1′H,3′H,5′H-spiro[piperidine-4,2′-pyrazolo[1,2-a]pyrazol]-1′-one]"
5,73,"N#Cc1nccc(N2CCC3(CC2)CN2CC[C@@H](c4cc(F)cc(F)c4)N2C3=O)n1 [Example 1.78, (S)-4-(7′-(3,5-difluorophenyl)-1′-oxodihydro-1′H,3′H,5′H-spiro[piperidine-4,2′-pyrazolo[1,2-a]pyrazol]-1-yl)pyrimidine-2-carbonitrile]"
6,15,"O=C(c1cc(F)ccc1F)N1CCC2(CC1)CN1CC[C@@H](c3cc(F)cc(F)c3)N1C2=O [Example 4.21, (S)-1-(2,5-difluorobenzoyl)-7′-(3,5-difluorophenyl) dihydro-1′H,3′H,5′H-spiro[piperidine-4,2′-pyrazolo[1,2-a]pyrazol]-l′-one]"
7,132,"O=C1N2[C@H](c3cc(F)cc(F)c3)CCN2CC12CCN(c1cc(-c3ccco3)ccn1)CC2 [Example 2.22, (S)-7′-(3,5-difluorophenyl)-1-(4-(furan-2-y1)pyridin-2-yl)dihydro-1′H,3′H,5′H-spiro[piperidine-4,2′-pyrazolo[1,2-a]pyrazol]-1′-one]"
8,152,"O=C1N2[C@H](c3cc(F)cc(F)c3)CCN2CC12CCN(c1cnc(-c3ccc(Cl)cc3)cn1)CC2 [Example 2.18, (S)-1-(5-(4-chlorophenyl)pyrazin-2-y1)-7′-(3,5-difluorophenyl)dihydro-1′H,3′H,5′H-spiro[piperidine-4,2′-pyrazolo[1,2-a]pyrazol]-1′-one]"
